Data: patent US11220491B2, “Photoprotective compositions containing Malassezia-derived compounds and/or chemical analogs thereof” (Versicolor Technologies, LLC, priority 2018, dated 2022)

How the values were obtained:
[1] = molecular target: T1, arylhydrocarbon receptor (AhR) (Homo sapiens, UniProt P35869); assay: HepG2-AhR-Luciferase assay; settings: EC50 (uM), 24 hours of treatment
T1 sequence (P35869 11-848): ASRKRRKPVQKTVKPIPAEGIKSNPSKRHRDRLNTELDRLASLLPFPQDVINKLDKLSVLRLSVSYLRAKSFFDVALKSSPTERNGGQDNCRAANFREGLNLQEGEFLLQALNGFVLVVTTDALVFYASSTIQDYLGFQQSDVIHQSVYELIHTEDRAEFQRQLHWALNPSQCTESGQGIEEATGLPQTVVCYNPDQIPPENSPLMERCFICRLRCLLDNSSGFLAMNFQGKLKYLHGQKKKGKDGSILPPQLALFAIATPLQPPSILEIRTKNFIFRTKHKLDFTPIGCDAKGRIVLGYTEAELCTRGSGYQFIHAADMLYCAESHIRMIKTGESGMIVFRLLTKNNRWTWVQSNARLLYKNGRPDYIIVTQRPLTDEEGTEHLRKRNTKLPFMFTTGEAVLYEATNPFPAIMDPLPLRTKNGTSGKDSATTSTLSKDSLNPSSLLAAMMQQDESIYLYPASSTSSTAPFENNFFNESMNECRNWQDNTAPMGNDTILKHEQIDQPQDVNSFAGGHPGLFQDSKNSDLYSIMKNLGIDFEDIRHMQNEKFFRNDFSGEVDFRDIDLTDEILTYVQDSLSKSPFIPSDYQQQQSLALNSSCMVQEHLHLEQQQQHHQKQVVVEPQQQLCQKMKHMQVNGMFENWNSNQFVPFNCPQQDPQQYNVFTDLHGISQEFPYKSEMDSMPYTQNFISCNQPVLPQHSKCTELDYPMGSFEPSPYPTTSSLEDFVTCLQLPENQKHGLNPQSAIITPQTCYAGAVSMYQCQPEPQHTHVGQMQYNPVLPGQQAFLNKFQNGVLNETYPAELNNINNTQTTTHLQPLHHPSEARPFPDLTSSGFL
Procedure: HepG2-AhR-Luc cells were purchased from Pharmaron, One-Glo Luciferase assay system was purchased from Promega. DMEM was purchased from Hyclone, and penicillin/streptomycin was purchased from Solabio.
Culture media for stably transfected HepG2 cells was prepared by supplementing DMEM with high glucose and L-glutamine, as well as 10% FBS.
HepG2-AhR-Luc cells were cultured in T-75 flasks at 37° C., 5% CO2, and 95% relative humidity. Cells were allowed to reach 80-90% confluence before detachment and splitting.
Cultivated cells were rinsed with 5 mL PBS. PBS was aspirated away, 1.5 mL trypsin was added to the flask, and cells were incubated at 37° C. for approximately 5 minutes or until the cells detached and floated. Trypsin was inactivated by adding excess serum-containing media.
The cell suspension was transferred to a conical tube and centrifuged at 120 g for 10 minutes to pellet the cells. Cells were resuspended in seeding media at a proper density. 40 μL of cells were transferred to a 384-well culture plate (5×10^3 cells/well). Plates were placed in the incubator at 37° C. for 24 hours.
Afterward, stock solutions of test compounds and omeprazole positive control were prepared. Compound solutions were transferred into the assay plate using Echo550. The plate was then placed back into the incubator for compound treatment.
Later, after 24 hours of treatment, the plate was removed from the incubator and allowed to cool at ambient temperature. 30 μL One-Glo reagent equal to that of the culture medium was added in each well. Cells were allowed to lyse for at least 3 minutes, and then measured in a luminometer.
Dose responses were graphed using the non-linear regression analysis in XLfit and EC50 values were also calculated.

MelanoDerm™ Skin Model = assay: MelanoDerm Study 1, MTT tissue viability (Example 19); format: cell-based, human; settings: 200 μM compared to 50 μM
Excerpt: Treatments were as follows: 7-days of treatment in alternate days (7TD); 7-days of treatment in alternate days followed by 7-days without treatment (recovery) (7TD+7NTD); and 14-days of treatment in alternate days (14TD). The study also evaluated the potential dermal irritation induced by each test article as measured by the conversion of MTT by MelanoDerm™ tissues after repeated exposures to the test articles, over the treatment periods specified in the protocol.
(Berridge et al., 1996). The toxicity of the test articles to the tissue, which is evidence for potential dermal irritation, was determined by measuring the relative survival—the MTT conversion relative to the negative control-treated tissues.
The test articles, CV-8686 and AB11644, were provided as stock solutions (˜100 mM each) in DMSO. The test articles were administered to the test system as a 50 μM and 200 μM dilution in sterile, EPI-100-LLMM. Test article DMSO (vehicle control) was administered to the test system as a 0.2% dilution in sterile, EPI-100-LLMM.
The test articles were each prepared using the procedure as follows: starting from the stock concentrations provided, 2 μl of each test article were first diluted with the appropriate volume of EPI-100-LLMM to a final concentration of 200 μM. […]

MeWo cells [2] = assay: CellTiter-Glo cell viability assay (Example 9); format: cell-based; settings: 100, 10, 1 μM; 6, 24, 48, 72 hours
Procedure: (§1) CellTiter-Glo® 2.0 assay was purchased from Promega. Cell seeding, preparation of the compound source plate, and exposure of cells to test compounds were performed as described in Example 8.
(§2) CellTiter-Glo® reagents were thawed and equilibrated to room temperature before the experiment. 40 μL of CellTiter-Glo® reagent was then added to each well for detection (at 1:1 ratio to culture medium). The plates were then incubated at room temperature for 30 minutes and read using EnSpire (PerkinElmer) plate reader. The remaining activity was calculated according to the following formula: Remaining Activity (%)=100%×(Lumsample−Lumbkg)/(Lumvehicle−Lumbkg).

MeWo cells [3] = assay: Preliminary annexin V-FITC assay (Example 7); format: cell-based; settings: 6-hour treatment
Procedure: MeWo (ATCC® HTB-65™) and WM115 (ATCC® CRL-1675) cells were purchased from ATCC (Manassas, Va.) and maintained in the following: for MeWo:DMEM supplemented with 10% FBS; for WM115: RPMI 1640 supplemented with 10% FBS (10% FBS, 1% stabilized antibiotic anti-mycotic solution).
During the first set of studies, both MeWo and WM115 cells were treated with test compounds at 10 doses starting from 100 μM with 3-fold dilution. Staurosporine was used as positive control. After 6-hour treatment, cell apoptosis was assessed using an annexin V assay. The test compounds evaluated were CV-8684, CV-8685, CV-8686, CV-8687, and CV-8688.
For cell seeding, cells were harvested and the cell number was determined using Countess® cell counter. Cells were then diluted with culture medium to the desired density. 40 μL of cell suspension per well was added to the required number of wells in a 384-well plate (Corning 3712—clear bottom plate). The final cell density was 6,000 cells/well. After plating, the plates were incubated at 37° C., and 5% CO2 overnight.
For preparation of compound source plate, each test compound was dissolved in DMSO to 10 mM stock. 3-fold serial dilution was performed using an EVO200™ liquid handler (TECAN) to generate ten concentrations of test compound. 0.1% DMSO was employed as vehicle (negative) control. The compound source plate was then spun at room temperature at 1,000 RPM for 1 minute and agitated using a plate shaker for 2 minutes.
For compound treatment, 40 nL of compound were transferred from the compound source plate to the 384-well culture plate using liquid handler Echo550 (LabCyte Inc.). After 6-hour incubation, the plates were removed from the incubator for detection.
For the preliminary annexin V assay, the plates were removed from the incubator and allowed to equilibrate at room temperature for 15 minutes. Culture media was then removed. 20 μL of pre-mixed annexin V-FITC and Hoechst33342 dye working solution were added to each well. The cells were then incubated at room temperature for 20 minutes. […] Afterward, the plate was read using an Acumen eX3 plate reader. The relative activity was calculated according to the following formula: Activity (%)=100%×(CountAnnexin V/CountTotal cell), and EC50 was calculated using GraphPad Prism (v. 5.01).

WM115 cells [4] = assay: CellTiter-Glo cell viability assay (Example 9); format: cell-based; settings: 100, 10, 1 μM; 6, 24, 48, 72 hours
Procedure: as §1, §2

WM115 cells [5] = assay: Annexin V assay, additional evaluation (Example 8); format: cell-based; settings: 100, 10, 1 μM; 6, 24, 48, 72 hours
Procedure: (§3) To further investigate the impact of test compounds on apoptosis, multiple readouts, covering different stages of apoptosis, were carried out on both MeWo and WM115 cells. Both cell types were treated with test compounds at 3 doses (100 μM, 10 μM, and 1 μM). Staurosporine was used as a positive control. […] The test compounds evaluated were CV-8684. CV-8685, and CV-8688.
(§4) Cell seeding was performed as discussed above with the following exceptions: the final cell density was 4,000 cells/well for 6-hour and 24-hour detections, whereas 2,000 cells/well were used for 48-hour and 72-hour detections. For each time point. 384-well clear bottom plates (Corning 3712) and solid white bottom plates (Corning 3570) were prepared. The plates were incubated as discussed above.
(§5) For preparation of the compound source plate, each test compound was dissolved in DMSO to 10 mM stock. Two additional concentrations were generations by 10-fold dilution to 1 mM and 0.1 mM. Staurosporine was used as positive control and 1% DMSO was employed as vehicle (negative) control. The compound source plate was spun at room temperature at 1,000 RPM for 1 minute and agitated using a plate shaker for 2 minutes.
(§6) 400 nL of test compound was transferred from the compound source plate to 384-well culture plates using Echo550 liquid handler. After 6, 24, 48, and 72 hours, the plates were removed from the incubator for detections.
(§7) Culture media was removed and cells were washed twice with PBS. 20 μL of pre-mixed annexin V-FITC working solution was added to each well. The cells were incubated at room temperature for 20 minutes. Plates were read using Acumen eX3 to count the number of FITC-positive cells. The relative activity was calculated according to the following formula: Relative Activity (%)=100%×(Countsample/Countvehicle).

MeWo cells [6] = assay: Annexin V assay, additional evaluation (Example 8); format: cell-based; settings: 100, 10, 1 μM; 6, 24, 48, 72 hours
Procedure: as §3, §4, §5, §6, §7

WM115 cells [7] = assay: Lactate dehydrogenase (LDH) release assay (Example 10); format: cell-based; settings: 100, 10, 1 μM; 6, 24, 48, 72 hours
Procedure: (§8) The LDH assay quantitatively measures lactate dehydrogenase (“LDH”) released into the media from damaged cells as a biomarker for cytotoxicity and cytolysis.
(§9) CytoTox-ONE™ Homogenous Membrane Integrity Assay was purchased from Promega. Cell seeding, preparation of the compound source plate, and exposure of cells to test compounds were performed as described in Example 8.
(§10) Plates were then centrifuged at 1,000 RPM for 1 minute. 20 μL of cell culture medium was transferred into a new 384-well black solid plate. Then, 20 μL of CytoTOX-ONE™ was added into each well and incubated at room temperature for 10 minutes. Afterward, 10 μL of stop solution were added to each well, and the plates were agitated at 500 rpm for 1 minute. Plates were read using an excitation wavelength of 560 nm and an emission wavelength of 590 nm on EnSpire. The relative activity was calculated according to the following formula: Relative Activity (%)=100%×(Lumsample−Lumbkg)/(Lumvehicle−Lumbkg).

MeWo cells [8] = assay: as above; format: cell-based; settings: 100, 10, 1 μM; 6, 24, 48, 72 hours
Procedure: as §8, §9, §10

MeWo cells [9] = assay: Cell morphology after treatment (Example 6); format: cell-based; settings: 100 μM, 6 hours
WM115 cells [10] = assay: Cell morphology after treatment (Example 6); format: cell-based; settings: 100 μM, 6 hours

Compound: c1ccc2c(C(c3c[nH]c4ccccc34)C3CC3)c[nH]c2c1 [AB11644]
- EC50 ([1]; Table 2): 14.9 µM
- viability of the tissues, dose response (MelanoDerm™ Skin Model): slightly lower viability

Compound: Cc1ccc2c(Cc3[nH]c4ccccc4c3C=O)c[nH]c2c1 [CV-8686]
- EC50 ([1]; Table 1): 3.17 µM
- viability of the tissues, dose response (MelanoDerm™ Skin Model): slightly lower viability

Compound: CC(c1[nH]c2ccccc2c1C=O)c1c[nH]c2ccccc12 (stereo not drawn) [CV-8688]
- inhibition of cell viability (MeWo cells [2]): inhibited viability of both cell types in a dose-dependent manner
- annexin V staining (MeWo cells [3]; preliminary screen): markedly increased annexin V staining
- EC50 (MeWo cells [3]; Homo sapiens, MeWo, 10 doses starting from 100 μM, read-out: EC50 of annexin V staining): 0.909 µM
- inhibition of cell viability (WM115 cells [4]): inhibited viability of both cell types in a dose-dependent manner
- EC50 ([1]; Table 1): 19.9 µM
- apoptosis induction (annexin V binding) (WM115 cells [5]): showed the induction effect within 6 hours of treatment in a dose-dependent manner
- apoptosis induction (annexin V binding) (MeWo cells [6]): showed the induction effect within 6 hours of treatment in a dose-dependent manner
- LDH release (WM115 cells [7]): induced LDH release at the highest concentration tested
- LDH release (MeWo cells [8]): induced LDH release at the highest concentration tested
- cell morphology (MeWo cells [9]): significantly affected
- cell morphology (WM115 cells [10]): significantly affected
